Where two headings read alike, the source gives them in different places.

Data set [1] in a line: Solubility (physicochemical properties). To be noted: for Solubility: DMSO: solvent DMSO; for Solubility: Chloroform: solvent chloroform; for Solubility: Ethanol: solvent ethanol; for Solubility: Ethyl acetate: solvent ethyl acetate; for Solubility: Methanol: solvent methanol; for Solubility: Water: solvent water.
Data set [2] relates to HL-60 cells (human promyelocytic leukemia cells). The data set is described as follows: Cancer cell growth suppressing action using HL-60 cells (MTT method, Cell counting kit-8). It is filed as cell-based. The note with it: 24 hours, 6.3-100 μM, read-out: Cell growth suppressing ability to HL-60 (IC50). Here is the method:
Next, in order to see the effect of the phenolic polymerizable compound to cancer cells, cancer cell growth suppressing action using HL-60 cells (human promyelocytic leukemia cells) was tested.
For culturing the HL-60 cells, an enriched culture medium “RPMI-1640” (manufactured by Sigma-Aldrich Japan) containing 4 mM glutamine (L-Glutamine, manufactured by Sigma-Aldrich Japan) and 10% FBS (Foetal Bovine Serum, manufactured by Biological Industries) was used. For the test, a 96-well plate for cell culture (manufactured by Corning Japan) was used, and the HL-60 cells whose number of cells was adjusted to be 5×10^5 cells/mL were seeded at 100 μL per well.
As samples, p-coumaric acid, ferulic acid, coffeic acid, and sinapic acid, and the UHA6005, the UHA6006, the UHA7004, the UHA7009, the UHA7010, the UHA7011, the UHA8015, the UHA9019, and the UHA9020 which were already purified were used. With respect to the preparation of the samples, each compound was dissolved in DMSO (Wako Pure Chemical Industries, Ltd.), and then adjusted in such a manner that the final concentration in the HL-60 cell culture solutions was 6.3 μM, 12.5 μM, 25 μM, 50 μM, and 100 μM. Then, the test was started.
The number of viable cells was quantified by an MTT method using a “Cell counting kit-8” (manufactured by DOJINDO LABORATORIES). 24 hours after starting the test, 10 μl of a Cell counting kit-8 solution was added to each well, and then sufficiently stirred. After a shading reaction for 1 hour, the absorbancy was measured at a measurement wavelength of 450 nm using a plate leader (Biorad Laboratories, Inc., “BIO-RAD Model 680”). Then, the cell viability was calculated based on the obtained data. The cell viability is a value obtained by setting the number of viable cells of the culture liquid to which only DMSO as a solvent was added to 100%, and then calculating the number of viable cells under the concentration of each compound as a relative value. From the relationship between the concentration of each compound and the cell viability, the concentration IC50 (50% inhibition concentration) at which the cell growth is suppressed by 50% was calculated.
A general note: Tetrazolium assays rely on reduction of a dye to a coloured formazan, in cell work by metabolically active cells.

Data set [3] addresses rat intestine derived lipase. The data set is described as follows: Lipase inhibitory action test (Lipase kit S). The format is biochemical. To be noted: 30° C., 10 minutes reaction. As for the experimental part:
In order to see the inhibitory action to lipase of the phenolic polymerizable compound, an inhibitory action test using rat intestine derived lipase was performed.
As lipase, one obtained by suspending 100 mg of rat derived intestine acetone powder (manufactured by Sigma-Aldrich Japan) in 1 ml of 100 mM citric acid buffer (pH 6.0), stirred at 4° C. for 1 hour, centrifuging the same (at 15000 rpm for 45 minutes at 4° C.), and then diluting the supernatant by 1500 times was used as a lipase solution.
As samples, p-coumaric acid, ferulic acid, and coffeic acid and the UHA6005, the UHA6006, the UHA7009, the UHA7010, the UHA7011, the UHA8015, and the UHA9020 which were already purified were used. With respect to the preparation of the samples, each compound was dissolved in DMSO, and then prepared in such a manner as to achieve 0.1 mM, 0.5 mM, 1 mM, 2 mM, and 4 mM.
For measuring the activity, a “Lipase kit S” (Trade name, manufactured by Dainippon Pharmaceutical Co., Ltd.) was used. First, in accordance with a preparation method described in the catalog of the Lipase kit S, a color developing liquid was prepared. Reaction liquids in which 70 μl of the color developing liquid, 2 μl of an esterase inhibitor, 10 μl of the lipase solution, and 10 μl of the samples (Final concentration: 10 μM, 50 μM, 100 μM, 200 μM, 400 μM, and 1000 μM) were mixed were prepared, preincubated at 30° C. for 5 minutes, and then 8 μl of a substrate solution described in the catalog was added. Then, a reaction was started. After reacting for 10 minutes, 150 μl of a reaction stop liquid prepared in accordance with the preparation method described in the catalog of the Lipase kit S was added to stop the reaction. The resultant substance was subjected to a measurement of absorbancy at a wavelength of 415 nm. A reaction liquid to which only DMSO as the solvent of the sample was added was used as a positive control and one to which 10 μl of 100 mM citric acid buffer (pH 6.0) was added instead of the lipase solution was used as a negative control. From the relationship between the lipase inhibition rate calculated based on the data obtained therefrom and the concentration of each compound, the concentration IC50 at which the lipase activity is inhibited by 50% was calculated.

Data set [4] concerns SCC-4 cells (human oral cancer cells, ATCC). Kind of data set: Cancer cell growth suppressing action using SCC-4 cells (MTT method, Cell counting kit-8). It is filed as cell-based. The note with it: 6.3-100 μM, read-out: Cell growth suppressing ability (IC50). As for the experimental part:
Next, in order to see the effect of the phenolic polymerizable compound to oral cancer cells, cancer cell growth suppressing action using SCC-4 cells (human oral cancer cells, ATCC) was tested.
For culturing the SCC-4 cells, a DMEM/F-12 (1:1) culture medium (manufactured by GIBCO) containing 400 ng/mL hydrocortisone (manufactured by Sigma-Aldrich Japan), 1% antibiotic-antimycotic (manufactured by GIBCO), and 10% FBS (Foetal Bovine Serum, manufactured by ATCC) was used. For the test, a collagen I coat 96 well plate for cell culture (manufactured by Japan BD) was used, and SCC-4 cells whose number of cells was adjusted to be 5×10^5 cells/mL were seeded at 100 μL per well. The cells were cultured under the conditions of 37° C. and 5% CO2 for 24 hours, and were used for the test in a confluent state of 80% or higher.
As samples, p-coumaric acid and coffeic acid and the UHA6005, the UHA7009, the UHA7010, and the UHA7011 which were already purified were used. With respect to the preparation of the samples, each compound was dissolved in DMSO, and then prepared in such a manner as to achieve 0.63 mM, 1.25 mM, 2.5 mM, 5 mM, and 10 mM. The samples were added in such a manner that the final concentration in the SCC-4 cell culture solution was 6.3 μM, 12.5 μM, 25 μM, 50 μM, and 100 μM. Then, the test was started. A sample to which an equivalent amount of only DMSO as the solvent was added was used as a negative control.
The number of viable cells was quantified by an MTT method using a “Cell counting kit-8” in the same manner as in Example 18, and the concentration IC50 at which the cell growth is suppressed by 50% was calculated.

Take `COc1cc(C(C)/C=C/c2ccc(O)cc2)ccc1O` (single isomer, unassigned) [UHA8015]: in data set [1], the “Solubility: DMSO” value is on record as “Soluble”, the “Solubility: Chloroform” value was “Soluble”, the “Solubility: Ethanol” value is reported as “Soluble” and the “Solubility: Ethyl acetate” value is reported as “Soluble”. In data set [1], the “Solubility: Methanol” value is recorded as “Soluble” and the “Solubility: Water” value was “Non-soluble”. Besides, the IC50 (commonly the concentration that inhibits the measured activity by half) in data set [2] (Homo sapiens) worked out at 74.3 µM. The same molecule registered an IC50 in data set [3] of 350 µM.

With `O=C(O)/C=C/c1ccc(O)c(O)c1` [Coffeic acid, reference compound], the results for the IC50 in data set [2], in data set [4] and in data set [3] were more than 100 µM, more than 100 µM and more than 1000 µM, respectively.

As to `COc1cc(/C=C/C(=O)O)ccc1O` [Ferulic acid, reference compound], the 50% inhibitory concentration (IC50) was more than 100 µM in data set [2] (Homo sapiens) and more than 1000 µM in data set [3].

In the case of `COc1cc(/C=C/C(=O)O)cc(OC)c1O` [Sinapic acid, reference compound], the IC50 in data set [2] (Homo sapiens) is more than 100 µM.

In the case of `CC(/C=C/c1ccc(O)c(O)c1)c1ccc(O)c(O)c1` (centres unmarked) [UHA6005], in data set [1], the “Solubility: DMSO” value is “Soluble”, the “Solubility: Chloroform” value was “Soluble”, the “Solubility: Ethanol” value is reported as “Soluble” and the “Solubility: Ethyl acetate” value is on record as “Soluble”. For the same molecule, in data set [1], the “Solubility: Methanol” value is “Soluble” and the “Solubility: Water” value is given as “Poorly soluble”. Besides, the half-maximal inhibitory concentration (IC50) in data set [2] (Homo sapiens) amounted to 43.7 µM. Further, in data set [4] (Homo sapiens), the IC50 amounted to 69.7 µM. For the same molecule, the IC50 in data set [3] came to 253 µM.

Consider `CC(/C=C/c1cc(O)c(O)cc1C(C)c1ccc(O)c(O)c1)c1ccc(O)c(O)c1` (centres unmarked) [UHA6006], for which, in data set [1], the “Solubility: DMSO” value is “Soluble”, the “Solubility: Chloroform” value is “Soluble”, the “Solubility: Ethanol” value is “Soluble” and the “Solubility: Ethyl acetate” value is on record as “Soluble”. In data set [1], the “Solubility: Methanol” value is recorded as “Soluble” and the “Solubility: Water” value was “Poorly soluble”. Further, in data set [2] (Homo sapiens), the IC50 was 42.4 µM. In data set [3], this molecule had an IC50 of 188 µM.

As for `COc1cc(/C=C/C(C)c2ccc(O)c(OC)c2)ccc1O` (centres unmarked) [UHA7004], in data set [1], the “Solubility: DMSO” value is “Soluble”, the “Solubility: Chloroform” value is reported as “Soluble”, the “Solubility: Ethanol” value is listed as “Soluble” and the “Solubility: Ethyl acetate” value was “Soluble”. Besides, in data set [1], the “Solubility: Methanol” value is given as “Soluble” and the “Solubility: Water” value was “Poorly soluble”. Further, the IC50 in data set [2] (Homo sapiens) was 17.6 µM.

For the molecule `CC(/C=C/c1ccc(O)cc1)c1ccc(O)cc1` (centres unmarked) [UHA7009], in data set [1], the “Solubility: DMSO” value was “Soluble”, the “Solubility: Chloroform” value is “Soluble”, the “Solubility: Ethanol” value is recorded as “Soluble” and the “Solubility: Ethyl acetate” value is on record as “Soluble”. Further, in data set [1], the “Solubility: Methanol” value was “Soluble” and the “Solubility: Water” value was “Poorly soluble”. Moreover, the IC50 in data set [2] (Homo sapiens) was 49.3 µM. In addition, the IC50 in data set [4] (Homo sapiens) is 72.9 µM. In data set [3], the IC50 was 438 µM.

For the molecule `CC(CC(/C=C/c1ccc(O)cc1)c1ccc(O)cc1)c1ccc(O)cc1` (centres unmarked) [UHA7010], in data set [1], the “Solubility: DMSO” value is “Soluble”, the “Solubility: Chloroform” value was “Soluble”, the “Solubility: Ethanol” value is listed as “Soluble” and the “Solubility: Ethyl acetate” value is “Soluble”. Moreover, in data set [1], the “Solubility: Methanol” value is reported as “Soluble” and the “Solubility: Water” value was “Poorly soluble”. Besides, the IC50 in data set [2] (Homo sapiens) amounted to 35.3 µM. In data set [4] (Homo sapiens), the IC50 is 61.1 µM. The same molecule gave a 50% inhibitory concentration (IC50) in data set [3] of 60.4 µM.

Consider `CC(/C=C/c1ccc(O)c(C(C)c2ccc(O)cc2)c1)c1ccc(O)cc1` (centres unmarked) [UHA7011], for which, in data set [1], the “Solubility: DMSO” value is reported as “Soluble”, the “Solubility: Chloroform” value is “Soluble”, the “Solubility: Ethanol” value is “Soluble” and the “Solubility: Ethyl acetate” value is given as “Soluble”. In data set [1], the “Solubility: Methanol” value is “Soluble” and the “Solubility: Water” value is listed as “Poorly soluble”. In addition, the IC50 in data set [2] (Homo sapiens) is 35.4 µM. In addition, the IC50 in data set [4] (Homo sapiens) is 40.8 µM. In data set [3], this molecule showed an IC50 of 197 µM.

Consider `COc1cc(/C=C/C(C)c2cc(OC)c(O)c(OC)c2)cc(OC)c1O` (centres unmarked) [UHA9019], for which, in data set [1], the “Solubility: DMSO” value is “Soluble”, the “Solubility: Chloroform” value is “Soluble”, the “Solubility: Ethanol” value is “Soluble” and the “Solubility: Ethyl acetate” value is “Soluble”. In data set [1], the “Solubility: Methanol” value is “Soluble” and the “Solubility: Water” value is reported as “Poor soluble”. Moreover, the IC50 in data set [2] (Homo sapiens) stood at 66.2 µM.

As to `COc1cc(/C=C/C(C)c2ccc(O)c(O)c2)ccc1O` (centres unmarked) [UHA9020], in data set [1], the “Solubility: DMSO” value is recorded as “Soluble”, the “Solubility: Chloroform” value is recorded as “Soluble”, the “Solubility: Ethanol” value is listed as “Soluble” and the “Solubility: Ethyl acetate” value is “Soluble”. In data set [1], the “Solubility: Methanol” value was “Soluble” and the “Solubility: Water” value is listed as “Non-soluble”. Further, the IC50 in data set [2] (Homo sapiens) amounted to 38.5 µM. In addition, the IC50 in data set [3] was found to be 118 µM.

As for `O=C(O)/C=C/c1ccc(O)cc1` [p-coumaric acid, reference compound], the IC50 was more than 100 µM in data set [2] (Homo sapiens), more than 100 µM in data set [4] (Homo sapiens) and more than 1000 µM in data set [3].
